From US12187720B2, “Compounds for treatment of cancer” (ONCTERNAL THERAPEUTICS, INC., priority 2010, dated 2025) come the findings set out here.

One data set has as its system A375. The data set can be described thus: SRB cytotoxicity assay, A375 human melanoma cells. The format is cell-based. The settings on record: read-out: IC50 ± SEM A375. For orientation: The SRB assay estimates cell density from bound dye.
The test system of data set [1] is melanoma and prostate cancer cell lines. The data set can be described thus: SRB cytotoxicity, summary or average over melanoma and prostate cancer cell lines. The format is cell-based. The settings on record: for IC50: average of all seven cell lines.
A short description of data set [2]: Metabolic stability in human liver microsomes. As to conditions: for half-life at 0.5 μM: human, liver microsomes, pH 7.4.
Data set [3] is described as follows: Pharmacokinetic study in Sprague-Dawley rats. As to conditions: for CL (systemic clearance) / Vss (volume of distribution following intravenous dosing): IV, […] (1h, 2r), 5 mg/kg (5Ha, 5Hc); for F (percent oral bioavailability), rat: rats, PO versus IV.
The test system of a further data set is PC-3. The experiment in a line: SRB cytotoxicity assay, PC-3 prostate cancer cells. The format is cell-based, human. As to conditions: Homo sapiens, PC-3. The text has this:
(§1) Cells were stained with SRB solution.

In another data set the test system is DU 145. The experiment in a line: SRB cytotoxicity assay, DU 145 prostate cancer cells. The settings on record: Homo sapiens. The format is cell-based.
Description: as §1

The next data set relates to LNCaP. The data set can be described thus: SRB cytotoxicity assay, LNCaP prostate cancer cells. The format is cell-based, human. The settings on record: Homo sapiens, LNCaP.
Description: as §1

The next data set deals with PPC-1. The data set can be described thus: SRB cytotoxicity assay, PPC-1 prostate cancer cells. In kind it is cell-based, human. The settings on record: Homo sapiens, PPC-1.
Description: as §1

The subject of another data set is WM-164. The data set can be described thus: SRB cytotoxicity assay, WM-164 human melanoma cells. The format is cell-based. As to conditions: Homo sapiens.
For the next data set, the system named is MDA-MB-435/LCCMDR1. The experiment in a line: SRB cytotoxicity assay, multidrug-resistant MDA-MB-435/LCCMDR1 melanoma cells. The format is cell-based, human.
Data set [4] can be described thus: Metabolic stability in dog liver microsomes. The format is in vitro ADME. As to conditions: dog, dog liver microsomes, pH 7.4; Table 20; read-out: Half life in Dog liver microsome. A general note: Microsomes from liver hold many membrane-bound enzymes, among them those of drug oxidation.
The nature of data set [5]: in vivo. As to conditions: female, Sprague-Dawley, rat, plasma.
Data set [6] is described as follows: in vivo. As to conditions: male, ICR, mouse, plasma, po, 20 mg/kg.
A short description of data set [7]: Metabolic stability in rat liver microsomes. The settings on record: rat, liver microsomes, pH 7.4; Table 20; read-out: Half life in Rat liver microsome. The format is in vitro ADME.
A short description of data set [8]: Metabolic stability in mouse liver microsomes. The format is in vitro ADME. The settings on record: mouse, liver microsomes, pH 7.4, Table 20; read-out: Half life in Mouse liver microsome.
Setting [9] is: Table 13A, read-out: inhibitory effects PC3.
Setting [10] is: Table 13A, read-out: inhibitory effects DU145.
Setting [11] is: Table 13A, read-out: inhibitory effects LNCaP.
The mark [12] stands for this setting: Table 13A, read-out: inhibitory effects PPC1.
[13] abbreviates: Table 13B, read-out: inhibitory effects PC3.
The mark [14] stands for this setting: Table 13B, read-out: inhibitory effects DU145.
[15] abbreviates: Table 13B, read-out: inhibitory effects LNCaP.
[16] abbreviates: Table 13B, read-out: inhibitory effects PPC1.

Like-named read-outs stand apart in the source and are kept apart here.

Take “5-Phenyl-2-(3,4,5-trimethoxybenzyl)-1H-imidazole and 4-phenyl-2-(3,4,5-trimethoxybenzyl)-1H-imidazole [102a]”: the IC50 in the data set with A375 (Table 14C) was 10.2 ± 0.392 µM.
For `COc1cc(/C(=N/O)c2csc(-c3ccccc3)n2)cc(OC)c1OC` [2e-cis, (Z)-(2-Phenylthiazol-4-yl)(3,4,5-trimethoxyphenyl)methanone oxime], the “fold more activity than the comparator” value in data set [1] (2e-cis vs 2e-trans, 12jb vs 12kb) stood at 10 fold. The “half life in human liver microsome” value in [2] stood at 35 min.
As usually defined, the half-life is how long it takes for the measured level to halve. In data set [2], `COc1cc(-c2csc(-c3ccccc3)n2)cc(OC)c1OC` [2i, 2-Phenyl-4-(3,4,5-trimethoxyphenyl)thiazole] displayed a half-life at 0.5 μM of 32 min.
Take `COc1cc(C(=O)c2csc(Nc3ccccc3)n2)cc(OC)c1OC.Cl` [5Ha, (2-(phenylamino)thiazol-4-yl)(3,4,5-trimethoxyphenyl)methanone hydrochloride salt]: in [3], the “CL (systemic clearance)” value was 17 ± 3 mL/min/kg; the “Vss (volume of distribution following intravenous dosing)” value worked out at 1.4 ± 0.2 L/kg; the “F (percent oral bioavailability), rat” value is listed as 11%.
In the case of `COc1cc(C(=O)c2csc(Nc3ccc(F)cc3)n2)cc(OC)c1OC.Cl` [5Hc, (2-(p-fluorophenylamino)thiazol-4-yl)(3,4,5-trimethoxyphenyl)methanone hydrochloride salt], the IC50 with PC-3 (Table 6, read-out: IC50 ± SEM PC-3) stood at 0.053 µM; in the data set with DU 145 (Table 6, read-out: IC50 ± SEM DU 145), 0.07 µM; in the data set with LNCaP (Table 6, read-out: IC50 ± SEM LNCaP), 0.053 µM; with PPC-1 (Table 6, read-out: IC50 ± SEM PPC-1), 0.043 µM. Moreover, the “CL (systemic clearance)” value in data set [3] is reported as 13 ± 2 mL/min/kg. Further, the “Vss (volume of distribution following intravenous dosing)” value in [3] is 1.4 ± 0.2 L/kg. In addition, the “F (percent oral bioavailability), rat” value in [3] was determined as 21%.
For the molecule `COc1ccc(-c2nc(C(=O)c3ccc(F)cc3)cn2S(=O)(=O)c2ccccc2)cc1` [11cb, (4-fluorophenyl)(2-(4-methoxyphenyl)-1-(phenylsulfonyl)-1H-imidazol-4-yl)methanone], the IC50 is 0.043 µM in the data set on WM-164 (WM164, 48 h, Table 13, 48 h, read-out: IC50 ± SEM WM164 (converted)) and 0.043 µM in data set [1].
Consider `O=C(c1ccc(F)cc1)c1cn(S(=O)(=O)c2ccccc2)c(-c2ccc(Cl)cc2)n1` [11fb, (2-(4-chlorophenyl)-1-(phenylsulfonyl)-1H-imidazol-4-yl)(4-fluorophenyl)methanone], for which the IC50 came out at 0.035 ± 0.003 µM in the data set on MDA-MB-435/LCCMDR1 (Homo sapiens, Table 14A, multidrug-resistant cell line, n = 3, read-out: IC50 ± SEM MDA-MB-435/LCC6MDR1) and 0.072 µM in data set [1]. Moreover, the resistance index with MDA-MB-435/LCCMDR1 (IC50 on MDA-MB-435/LCC6MDR1 divided by IC50 on MDA-MB-435) and in the data set on MDA-MB-435/LCCMDR1 (MDA-MB-435/LCCMDR1 versus MDA-MB-435) was 0.7 throughout.
The term bioavailability denotes dose-corrected exposure relative to a reference, in per cent. Low readings indicate little systemic uptake, high ones much systemic uptake. With `COc1cc(C(=O)c2c[nH]c(-c3ccc(Cl)cc3)n2)cc(OC)c1OC` [12fa, (2-(4-chlorophenyl)-1H-imidazol-4-yl)(3,4,5-trimethoxyphenyl)methanone], the half-life at 0.5 μM in data set [4] worked out at 26 min; in data set [2], 56 min; in data set [7], 46 min; in data set [8], 23 min. Moreover, the bioavailability in “in vivo [5]” (oral) was found to be 35%; in the data set “in vivo [5]” (po, 10 mg/kg), 35%; in the data set “in vivo [6]”, 62%. In [1], this molecule gave an IC50 of 0.043 µM.
On to `O=C(c1ccc(F)cc1)c1c[nH]c(-c2ccc(O)cc2)n1` [12kb], for which, in the data set with A375 (Table 12, 48 h), the IC50 was found to be 10 µM.
For the molecule `COc1cc(C(=O)c2nc(-c3ccc(F)cc3)c[nH]2)cc(OC)c1OC` [70b, (4-(4-fluorophenyl)-1H-imidazol-2-yl)(3,4,5-trimethoxyphenyl)methanone], the IC50 in the data set with PC-3 (setting [9]) stood at 0.196 µM; in the data set on DU 145 (setting [10]), 0.353 µM; with LNCaP (setting [11]) it was 0.114 µM; with PPC-1 (setting [12]), 0.013 µM.
As for `COc1cc(C(=O)c2nc(-c3ccc(N(C)C)cc3)c[nH]2)cc(OC)c1OC` [70h, (4-(4-(dimethylamino)phenyl)-1H-imidazol-2-yl)(3,4,5-trimethoxyphenyl)methanone], the IC50 with PC-3 (setting [9]) came out at 0.117 µM; in the data set with DU 145 (setting [10]) it was 0.263 µM; with LNCaP (setting [11]), 0.096 µM; in the data set on PPC-1 (setting [12]) it was 0.12 µM.
For the molecule `COc1cc(C(=O)c2nc(-c3ccc(O)cc3)c[nH]2)cc(OC)c1OC` [70i, (4-(4-hydroxyphenyl)-1H-imidazol-2-yl)(3,4,5-trimethoxyphenyl)methanone], the IC50 amounted to 0.155 µM in the data set with PC-3 (setting [9]), 0.518 µM with DU 145 (setting [10]), 0.219 µM in the data set on LNCaP (setting [11]) and 0.122 µM with PPC-1 (setting [12]).
On the same counts, the results for `COc1cc(C(=O)c2nc(-c3ccccc3)c(C)[nH]2)cc(OC)c1OC` [70j, (5-methyl-4-phenyl-1H-imidazol-2-yl)(3,4,5-trimethoxyphenyl)methanone] are 1.62 µM, 2 µM, 0.938 µM and 0.86 µM.
Regarding `CCc1[nH]c(C(=O)c2cc(OC)c(OC)c(OC)c2)nc1-c1ccccc1` [70k, (5-ethyl-4-phenyl-1H-imidazol-2-yl)(3,4,5-trimethoxyphenyl)methanone], the IC50 in the data set on PC-3 (setting [9]) came out at 3.65 µM; in the data set with DU 145 (setting [10]), 5.08 µM; with LNCaP (setting [11]), 2.03 µM; with PPC-1 (setting [12]), 2.08 µM.
Turning to `CCCc1[nH]c(C(=O)c2cc(OC)c(OC)c(OC)c2)nc1-c1ccccc1` [70l, (4-phenyl-5-propyl-1H-imidazol-2-yl)(3,4,5-trimethoxyphenyl)methanone], the IC50 worked out at 12.4 µM in the data set on PC-3 (setting [9]), 16.4 µM in the data set with DU 145 (setting [10]), 3.09 µM in the data set with LNCaP (setting [11]) and 11.4 µM in the data set with PPC-1 (setting [12]).
Consider `O=C(c1ccc(F)cc1)c1nc(-c2ccc(F)cc2)c[nH]1` [70r, (4-fluorophenyl)(4-(4-fluorophenyl)-1H-imidazol-2-yl)methanone], for which the IC50 in the data set with PC-3 (setting [13]), with DU 145 (setting [14]), in the data set with LNCaP (setting [15]) and with PPC-1 (setting [16]) was over 50 µM in each case.
Turning to `O=C(c1ccc(Cl)cc1)c1nc(-c2ccc(Cl)cc2)c[nH]1` [70s, (4-chlorophenyl)(4-(4-chlorophenyl)-1H-imidazol-2-yl)methanone], the IC50 with PC-3 (setting [13]), in the data set on DU 145 (setting [14]), in the data set with LNCaP (setting [15]) and with PPC-1 (setting [16]) was over 50 µM throughout.
Take `O=C(c1ccc(C(F)(F)F)cc1)c1nc(-c2ccc(C(F)(F)F)cc2)c[nH]1` [70u, (4-(trifluoromethyl)phenyl)(4-(4-(trifluoromethyl)phenyl)-1H-imidazol-2-yl)methanone]: the IC50 in the data set on PC-3 (setting [13]), in the data set on DU 145 (setting [14]), in the data set on LNCaP (setting [15]) and with PPC-1 (setting [16]) was over 50 µM in each case.
For the molecule `Cc1ccc(C(=O)c2nc(-c3ccc(C)cc3)c[nH]2)cc1` [70v, p-tolyl(4-p-tolyl-1H-imidazol-2-yl)methanone], the IC50 in the data set on PC-3 (setting [13]) was 5.16 µM; in the data set on DU 145 (setting [14]) it was 6.54 µM; in the data set on LNCaP (setting [15]), 3.76 µM; in the data set with PPC-1 (setting [16]) it was 2.41 µM.
Turning to `COc1ccc(C(=O)c2nc(-c3ccc(OC)cc3)c[nH]2)cc1` [70w, (4-methoxyphenyl)(4-(4-methoxyphenyl)-1H-imidazol-2-yl)methanone], the IC50 in the data set with PC-3 (setting [13]) came to 23.4 µM; in the data set on DU 145 (setting [14]) it was 9.39 µM; in the data set with LNCaP (setting [15]) it was 6.41 µM; in the data set on PPC-1 (setting [16]), 38.1 µM.
With `COc1cc(-c2c[nH]c(C(=O)c3ccc(Br)cc3)n2)cc(OC)c1OC` [70z, 4-bromophenyl(4-(3,4,5-trimethoxyphenyl)-1H-imidazol-2-yl)methanone], the IC50 with PC-3 (setting [13]) is 0.371 µM; with DU 145 (setting [14]), 0.43 µM; in the data set with LNCaP (setting [15]), 0.131 µM; in the data set on PPC-1 (setting [16]) it was 0.107 µM.
On to `COc1cc(Cc2nc(-c3ccccc3)c(C)[nH]2)cc(OC)c1OC` [102b, 5-methyl-4-phenyl-2-(3,4,5-trimethoxybenzyl)-1H-imidazole], for which the IC50 with A375 (Homo sapiens, A-375, Table 14C) was over 50 µM.
For the molecule `COc1ccc(C(=O)n2ccnc2-c2ccc(F)cc2)cc1` [compound 24], the IC50 is over 10 µM in the data set on PC-3 (Table 6A, read-out: IC50 PC-3); over 10 µM in the data set with DU 145 (Table 6A, read-out: IC50 DU 145); over 10 µM in the data set on LNCaP (Table 6A, read-out: IC50 LNCaP); over 10 µM in the data set on PPC-1 (Table 6A, read-out: IC50 PPC-1).
Consider `COc1cc(C(=O)c2csc(-c3ccccc3)n2)cc(OC)c1O` [compound 34], for which the IC50 in the data set on WM-164 (WM164, Table 6A, read-out: IC50 WM164) was over 10 µM; with LNCaP (Table 6A, read-out: IC50 LNCaP) it was over 10 µM.
